Experimental data reported in PubChem BioAssay AID2060621 (Molecular Pharmacology Branch, DTP, NCI, 2025).
pIC50: −log10 of the molar value. Where “and” joins values, the source holds several entries; their conditions need not be identical. Identical values can stand only once.

Test system: 324938-238-R-J1-PDC complex spheroids viability
Experiment: Anticancer human tumor 324938-238-R-J1-PDC patient-derived bladder carcinoma cell line growth inhibition [CLK]
Conditions: for viability, T/C: stronger effect = lower value
Procedure, shortened: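 Patient-derived tumor cells grown as complex spheroids with HUVEC endothelial cells and mesenchymal stem cells, treated with drug combinations. Concentrations descend in half-log steps from near clinical Cmax, or from 10 microM if Cmax unknown.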

[1] = curve of first compound, second compound 0.0316 µM
[2] = curve of first compound, second compound 0.1 µM
[3] = curve of first compound, second compound 0.316 µM
[4] = curve of first compound, second compound 1 µM
[5] = curve of first compound, second compound 3.16 µM
[6] = curve of first compound, second compound 10 µM
[7] = second compound 0.0316 µM, first compound 0.0316 µM
[8] = second compound 0.0316 µM, first compound 0.1 µM
[9] = second compound 0.0316 µM, first compound 0.316 µM
[10] = second compound 0.0316 µM, first compound 1 µM
[11] = second compound 0.0316 µM, first compound 3.16 µM
[12] = second compound 0.0316 µM, first compound 10 µM
[13] = second compound 0.1 µM, first compound 0.0316 µM
[14] = second compound 0.1 µM, first compound 0.1 µM
[15] = second compound 0.1 µM, first compound 0.316 µM
[16] = second compound 0.1 µM, first compound 1 µM
[17] = second compound 0.1 µM, first compound 3.16 µM
[18] = second compound 0.1 µM, first compound 10 µM
[19] = second compound 0.316 µM, first compound 0.0316 µM
[20] = second compound 0.316 µM, first compound 0.1 µM
[21] = second compound 0.316 µM, first compound 0.316 µM
[22] = second compound 0.316 µM, first compound 1 µM
[23] = second compound 0.316 µM, first compound 3.16 µM
[24] = second compound 0.316 µM, first compound 10 µM
[25] = second compound 1 µM, first compound 0.0316 µM
[26] = second compound 1 µM, first compound 0.1 µM
[27] = second compound 1 µM, first compound 0.316 µM
[28] = second compound 1 µM, first compound 1 µM
[29] = second compound 1 µM, first compound 3.16 µM
[30] = second compound 1 µM, first compound 10 µM
[31] = second compound 3.16 µM, first compound 0.0316 µM
[32] = second compound 3.16 µM, first compound 0.1 µM
[33] = second compound 3.16 µM, first compound 0.316 µM
[34] = second compound 3.16 µM, first compound 1 µM
[35] = second compound 3.16 µM, first compound 3.16 µM
[36] = second compound 3.16 µM, first compound 10 µM
[37] = second compound 10 µM, first compound 0.0316 µM
[38] = second compound 10 µM, first compound 0.1 µM
[39] = second compound 10 µM, first compound 0.316 µM
[40] = second compound 10 µM, first compound 1 µM
[41] = second compound 10 µM, first compound 3.16 µM
[42] = second compound 10 µM, first compound 10 µM
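Further: viability read after seven days of drug exposure.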
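Wherever viability, T/C is given: 100% = DMSO vehicle control wells.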

SMILES: CC1(C)CCC(CN2CCN(c3ccc(C(=O)NS(=O)(=O)c4ccc(NCC5CCOCC5)c([N+](=O)[O-])c4)c(Oc4cnc5[nH]ccc5c4)c3)CC2)=C(c2ccc(Cl)cc2)C1 + CN1CCN(c2cc(C(=O)Nc3cc4cc(-c5cnn(C)c5)ccc4cn3)ccn2)CC1
- pIC50 [1]: 5.17
- pIC50 [2]: 5.83
- pIC50 [3]: > 7.50
- pIC50 [4]: > 7.50
- pIC50 [5]: > 7.50
- pIC50 [6]: > 7.50
- viability, T/C [7]: 79.6%
- viability, T/C [8]: 90.2%
- viability, T/C [9]: 80.3%
- viability, T/C [10]: 81%
- viability, T/C [11]: 82.8%
- viability, T/C [12]: 32.7%
- viability, T/C [13]: 51.9%
- viability, T/C [14]: 55.4%
- viability, T/C [15]: 47.4%
- viability, T/C [16]: 54.9%
- viability, T/C [17]: 46.2%
- viability, T/C [18]: 26.4%
- viability, T/C [19]: 25.2%
- viability, T/C [20]: 22.9%
- viability, T/C [21]: 19%
- viability, T/C [22]: 24.8%
- viability, T/C [23]: 21.5%
- viability, T/C [24]: 11.6%
- viability, T/C [25]: 1.53%
- viability, T/C [26]: 1.38%
- viability, T/C [27]: 1.4%
- viability, T/C [28]: 1.48%
- viability, T/C [29]: 1.08%
- viability, T/C [30]: 0.34%
- viability, T/C [31]: 0.12%
- viability, T/C [32]: 0.21%
- viability, T/C [33]: 0.14%
- viability, T/C [34]: 0.14%
- viability, T/C [35]: 0.11%
- viability, T/C [36]: 0.16%
- viability, T/C [37]: 0.12%
- viability, T/C [38]: 0.16%
- viability, T/C [39]: 0.16%
- viability, T/C [40]: 0.14%
- viability, T/C [41]: 0.19%
- viability, T/C [42]: 0.19%

SMILES: CCCS(=O)(=O)Nc1ccc(F)c(C(=O)c2c[nH]c3ncc(-c4ccc(Cl)cc4)cc23)c1F + CN1CCN(c2cc(C(=O)Nc3cc4cc(-c5cnn(C)c5)ccc4cn3)ccn2)CC1
- pIC50 [1]: < 5.00
- pIC50 [2]: 5.08
- pIC50 [3]: > 7.50
- pIC50 [4]: > 7.50
- pIC50 [5]: > 7.50
- pIC50 [6]: > 7.50
- viability, T/C [7]: 76.9%
- viability, T/C [8]: 96%
- viability, T/C [9]: 92.7%
- viability, T/C [10]: 114%
- viability, T/C [11]: 102%
- viability, T/C [12]: 58.3%
- viability, T/C [13]: 61.2%
- viability, T/C [14]: 61.3%
- viability, T/C [15]: 52%
- viability, T/C [16]: 65.7%
- viability, T/C [17]: 60.1%
- viability, T/C [18]: 39.1%
- viability, T/C [19]: 24.1%
- viability, T/C [20]: 27.6%
- viability, T/C [21]: 24.5%
- viability, T/C [22]: 27.2%
- viability, T/C [23]: 26%
- viability, T/C [24]: 24.8%
- viability, T/C [25]: 1.58%
- viability, T/C [26]: 1.65%
- viability, T/C [27]: 1.22%
- viability, T/C [28]: 0.96%
- viability, T/C [29]: 1.9%
- viability, T/C [30]: 0.6%
- viability, T/C [31]: 0.52%
- viability, T/C [32]: 0.23%
- viability, T/C [33]: 0.3%
- viability, T/C [34]: 0.13%
- viability, T/C [35]: 0.14%
- viability, T/C [36]: 0.21%
- viability, T/C [37]: 0.56%
- viability, T/C [38]: 0.19%
- viability, T/C [39]: 0.19%
- viability, T/C [40]: 0.31%
- viability, T/C [41]: 0.18%
- viability, T/C [42]: 0.62%

SMILES: Nc1ccccc1NC(=O)c1ccc(CNC(=O)OCc2cccnc2)cc1
- viability, T/C (compound 0.0316 µM): 90% and 75.9%
- viability, T/C (compound 0.1 µM): 89.8% and 91.8%
- viability, T/C (compound 0.316 µM): 83.1% and 73.8%
- viability, T/C (compound 1 µM): 58% and 50.5%
- viability, T/C (compound 3.16 µM): 29.4% and 33.5%
- viability, T/C (compound 10 µM): 9.64% and 5.66%
- pIC50 (curve of compound): 5.85 and 5.89

SMILES: CC(=O)O[C@H]1C(=O)[C@@]2(C)[C@H]([C@H](OC(=O)c3ccccc3)[C@]3(O)C[C@H](OC(=O)[C@H](O)[C@@H](NC(=O)c4ccccc4)c4ccccc4)C(C)=C1C3(C)C)[C@]1(OC(C)=O)CO[C@@H]1C[C@@H]2O
- viability, T/C (compound 0.0316 µM): 12.8% and 11.6%
- viability, T/C (compound 0.1 µM): 12%
- viability, T/C (compound 0.316 µM): 11.3% and 13.4%
- viability, T/C (compound 1 µM): 12.2% and 10.1%
- viability, T/C (compound 3.16 µM): 13.7% and 12.3%
- viability, T/C (compound 10 µM): 15.3% and 14.2%
- pIC50 (curve of compound): > 7.50
